Laboratory results as given in a melting point compilation (Tetko et al.; mined from patent text by program, amines drawn as free bases though some values may be those of a salt).

Row | melting point [°C] | SMILES
1 | 165 | NS(=O)(=O)c1ccc(Nc2nc(OCC3CC=CCC3)c3nc[nH]c3n2)cc1 (stereo unspecified)
2 | 158 to 159 | Cc1oc(-c2cccc(Br)c2)nc1CCOc1ccc(OC(C)(C)C(=O)O)cc1
3 | 152 | O=C(NC(=O)c1c(F)cccc1F)Nc1cc(C(F)(F)F)cc(C(F)(F)F)n1
4 | 79 to 80 | COCCOc1ncc(Br)nc1-c1ccc(Cl)cc1
5 | 47 to 48 | C=CC(O)c1ccc2cc(OCCCCCC)ccc2c1 (stereo unspecified)
6 | > 250 | Cc1cc(-c2ccc(C(F)(F)F)cc2)cc(-c2nc(-c3cccc(S(N)(=O)=O)c3)cs2)n1
7 | 225 to 226 | O=C1c2cccnc2N(N2CCOCC2)C2=NCCN12
8 | 90 | O=C(O)CC(CNC(=O)C1Cc2ccccc2N1S(=O)(=O)c1ccc(-c2cccc(C(F)(F)F)c2)cc1)c1ccccc1 (stereo unspecified)
9 | 63 to 64 | C=CCOc1ccc(C(C)=O)c(NC(C)=O)c1
10 | 203 to 204 | CC1=NN=C(N2N=C(c3ccc([N+](=O)[O-])cc3)c3cc4c(cc3CC2C)OCO4)SC1 (stereo unspecified)
11 | 55 | COc1cc(C)c2c(c1)C(=O)CCC2
12 | 91.5 to 93.5 | Cc1ccc(-c2c(N)ncnc2OCCO)cc1
13 | 177 to 180 | CNC(=O)c1ccc(C)c(-n2c(C)cc(OCc3ccc(F)cc3CNC(=O)Nc3cc(C(C)(C)C)nn3-c3ccc(O)c(Cl)c3)c(Cl)c2=O)c1
14 | 83 to 85 | CCCC(C)(C)C[C@@H](CC(=O)OC(C)(C)C)C(=O)N1C(=O)O[C@H](c2ccccc2)[C@@H]1C
15 | 84 | O=S(=O)(c1ccc(Cl)cc1)N1CCCC1c1cccs1 (racemic)
16 | 129 to 130 | COC(=O)C(=CO)N(C)C(=O)C=Cc1ccccc1Cl
17 | 108 | COc1ccc(Cl)cc1C(=O)c1cc(Cl)ccc1OC
18 | 204 | O=C1c2cccc(-n3c(=O)[nH]c4cnccc4c3=O)c2C2CC3(CCN12)OCCO3 (stereo unspecified)
19 | 218 to 220 | CCCCCCCCCCCCCCCCN1CCN(c2ccc(CCC(=O)O)cc2)CC1
20 | 202 to 205 | Cc1ccc(-c2ccc3c(c2)C=C(C(=O)Nc2ccc(C(O)c4ccccn4)cc2)C(C)O3)cc1 (stereo unspecified)
21 | 191 to 194 | N#Cc1ccc(O)cn1
22 | 77 to 97 | Cc1cccc(-c2nc(C(C)C)[nH]c2-c2ccc(F)c(-c3cnn(C)c3)c2)n1
23 | 140 | O=S1NC(Cc2coc3ccc(Cl)cc23)=NO1 (stereo unspecified)
24 | 112 to 114 | N#CC(Cc1ccco1)(Cn1cncn1)c1ccc(Cl)cc1 (stereo unspecified)
25 | 150 | NCCNCCCNCCN1C(=O)c2cccc3cc4ccccc4c(c23)C1=O
26 | 88 to 89 | CC(C)N1C(=O)N(c2ccccc2Cl)CSC1=NC(C)(C)C

Row | melting point [°C] | SMILES
27 | 132 to 133 | CCc1cc(OCc2ccccc2)ccc1C(=O)O
28 | 96 to 98 | CCNC(=S)N1CCN([C@H](C)[C@](O)(Cn2cncn2)c2ccc(F)cc2F)CC1
29 | 250 to 252 | N#Cc1ccc(-c2cc(=O)c3cccnc3o2)cc1
30 | 148 to 149 | COC(=O)c1cc2c(nc1Cl)CCCCC2
31 | 140 to 141 | CCOC(=O)n1cc(C=O)c(-c2ccc([N+](=O)[O-])o2)n1
32 | 126 to 128 | CCCc1nccn1-c1nc(Cl)nc2c1ncn2C1OC(COC(C)=O)C(OC(C)=O)C1OC(C)=O (stereo unspecified)
33 | 130 to 132 | CN(C(=O)NCCO)C1c2ccccc2Oc2ccccc21
34 | 165 | COc1ccc(CN2C(=O)C(CO)(c3ccccc3Cl)c3cc(Cl)ccc32)c(OC)c1 (stereo unspecified)
35 | 115 to 125 | COc1c(N2CCC(O)C(CO)C2)c(F)cc2c(=O)c(C(=O)O)cn(C3CC3)c12 (stereo unspecified)
36 | 122 to 124 | COc1cnc(CO)cc1OC
37 | 230 to 235 | CC1CC2=C(CCC(Cc3ccc(O)cc3)C2)NC1=O (stereo unspecified)
38 | 120 | CNC(=O)NS(=O)(=O)c1cc(CCNC(=O)/C=C/c2cccs2)ccc1OC
39 | 72 to 74 | COc1ccc2cccc(CO)c2c1
40 | 262 to 266 | O=C(O)Cn1c(=O)sc2cc(-c3ccccc3)c(Cl)cc21
41 | 99 to 101 | CCCCCCCCCCCCCCCCCCOc1cc(OCCCOc2ccc(C(C)(C)C)cc2)cc(N(CC(=O)O)CC(=O)O)c1
42 | 193 to 194 | O=C(N[C@H](Cc1cccc(C(F)(F)F)c1)[C@@H](O)c1ccc(F)cc1)c1ccc(F)c2ccccc12 (racemic)
43 | 133 to 135 | NNC1=NCCCCN1
44 | 113 to 115 | CC(=O)c1cc2c(Cl)cccc2s1
45 | 242 to 244 | CC(=O)NCC(C)(C)c1ccc(C(=O)Nc2cn3cc(-n4ccnc4)ccc3n2)cc1
46 | 252 to 254 | COc1cc2ncnc(N3CCN(C(=O)Nc4ccc(-n5cccc5)nc4)CC3)c2cc1OC
47 | 56 to 57 | CCOC(=O)[C@H](CCc1ccccc1)N[C@@H](C)C(=O)N1C(=O)N(Cc2ccccc2)C[C@H]1C(=O)O
48 | 76 to 78 | O=C(O)CCCCCCCCCCn1c(-c2ccccc2)nc(-c2ccccc2)c1-c1ccccc1
49 | 164 to 165 | CN(C)c1cccc2c(S(=O)(=O)Nc3ccc(Br)nc3)cccc12
50 | 136 to 137 | COc1ccc2c3cc(C)ccc3n(CC3CCCCC3)c2c1
51 | 285 to 286 | CNc1nc(-c2cccnc2)nc(NC)c1C(=O)Nc1ccc(C)c(C)c1

Further lines, the molecule ahead of its results:

Row | SMILES | melting point [°C]
52 | Clc1ccc(-n2nc3c(c2Br)CCCC3)cc1 | 101 to 102
53 | CN1CCCC1=NC(=O)Nc1ccc([N+](=O)[O-])cc1 | 180 to 182
54 | CCc1cccc(N=C(C)Nc2cccc(CC)c2)c1 | 86 to 87
55 | CC(Oc1ccc(-c2ccc(-c3c(Cc4ccccc4)oc4ccccc34)cc2)cc1)C(=O)O (stereo unspecified) | 112 to 114
56 | CC(C)Cc1nn(C)c(=O)c2cc(Cc3c(F)cccc3Cl)sc12 | 85 to 86
57 | Cc1cccc(C(=O)C(Br)c2ccnc(F)c2)c1 (stereo unspecified) | 66 to 67
58 | CNC(=S)n1nc(Oc2ncc(C(F)(F)F)cc2Cl)cc1C | 63 to 65
59 | CCCCCCCC(=O)N[C@@H](Cc1ccc(O)cc1)C(=O)OC | 76
60 | C=C1CCc2c(F)c(F)cc3c(=O)c(C(=O)OCC)cn1c23 | 272 to 274
61 | COc1cc(-c2nc3ccc(OCCN4CCCCC4)cc3n2Cc2ccccc2C(F)(F)F)cc(OC)c1OC | 167
62 | N#Cc1ccc(CO)cc1F | 70 to 72
63 | Cc1ccn(-c2ccc(C(=O)N3Cc4cccnc4Nc4ccccc43)c(F)c2)n1 | 122 to 125
64 | Cc1cc(Cl)nc(Br)c1 | 76
65 | O=[N+]([O-])c1cc(Cl)c(O)cc1OCCO | 159
66 | COc1cncnc1N1CCN(CCCc2c[nH]c3ccc(Nc4c(OC(C)C)c(=O)c4=O)cc23)CC1 | 140 to 143
67 | CC(C)(C)n1cc(-c2ccc(Oc3ccccc3)cc2)c2c(N)ncnc21 | 157 to 158
68 | CCCOc1ccc(SCCSc2ccc(OCCC)cc2)cc1 | 111 to 112
69 | COC(=O)COc1cc2ccccc2c2c1c(C(=O)C(N)=O)c(C)n2CC1CCCCC1 | 156 to 158
70 | CC(C)N(C[C@H](O)[C@H](Cc1ccccc1)NC(=O)[C@H](CC(N)=O)NC(=O)c1ccccn1)NC(=O)OC(C)(C)C | 101 to 108
71 | COC(=O)c1ccc(Cc2cc3cc(C(F)(F)F)ccc3n2S(=O)(=O)c2ccc(C(C)C)cc2)cc1F | 132
72 | N#Cc1cccc(C=C2c3ccccc3CCc3ccccc32)c1 | 116
73 | COC(=O)CCCc1cc2cc(Cl)ccc2n1S(=O)(=O)c1ccc2nc(C)oc2c1 | 100 to 110
74 | O=C(C1=NN(CC(F)(F)F)C(=O)CN1)c1ccccc1 | 142 to 145
75 | COc1cc(C)cc(OC)c1C(=O)CCl | 82 to 84
76 | CC(=O)Nc1ccc(-c2ccc(CC34CCCN3C(=O)N(c3cc(Cl)cc(Cl)c3)C4=O)cc2)cc1 (stereo unspecified) | 124

Row | SMILES | melting point [°C]
77 | COc1ccc(Cn2cnc3c(-c4ccco4)nc(C(C)C)nc32)cc1 | 123
78 | CCCOc1ccc(C(N)=O)cc1-c1ccc(C#N)c(=O)[nH]1 | 246 to 247
79 | CN(C(=O)c1ccco1)c1cccc(-c2nc(=O)c3ccccc3s2)n1 | 186 to 187
80 | COc1cc(N)c(SC)cc1OC | 72 to 74
81 | Cc1nc(N2CCC(Cc3ccc(OC(F)(F)F)cc3)C2=O)sc1C(=O)NCc1cccnc1 (stereo unspecified) | 158 to 160
82 | COc1cc(CCl)nc(N)n1 | 89 to 90
83 | CON=C(C)c1cccc(Nc2nc(OC)cc(OC)n2)c1C(=O)OC | 82 to 84
84 | O=C(c1ccc(N2CCOCC2)cc1O)C(F)(F)F | 81 to 82
85 | CNCC(=O)NCC1Cc2cc(C)c3[nH]c(=O)ccc3c2O1 (stereo unspecified) | 188 to 191
86 | Cn1ccnc1Sc1ccc(Nc2c(C#N)cnc3cc(-c4ccc(CN5CCOCC5)cc4)ccc23)cc1Cl | 148 to 150
87 | Cc1csc2c(CSc3nc4ccccc4[nH]3)nccc12 | 160 to 162
88 | CCC(=O)c1[nH]c(=O)[nH]c1C | 270 to 271
89 | CC(C)(C)OC(=O)COC1CCN(C(=O)CC(=O)Nc2ccc(C(N)=NO)cc2)CC1 | 161 to 163
90 | COC(=O)Nc1nc2cc(S(=O)CC3CC3)ccc2[nH]1 (stereo unspecified) | 223 to 224
91 | Cc1nc(-c2cccc3nc(N[C@@H]4CCc5ccccc54)ccc23)no1 | 105
92 | Cc1cccc(-c2nc(=O)c3ccccc3s2)n1 | 170
93 | CC1(C)CC(=O)C(Br)(Cc2ccc(Cl)cc2)C(Br)C1 (stereo unspecified) | 82 to 84
94 | O=C1Cc2cc(Oc3ccccc3)ccc2N1 | 148 to 150
95 | COc1ccc2cc(C3SCCCS3)ccc2c1 | 190
96 | CCN1CCc2cc(OC)c(OC)cc2C1C1CC(C(=O)N2CCN(c3ccccn3)CC2)CCC12c1cc(OC)c(OC)cc1CCN2CC (stereo unspecified) | 115 to 117
97 | FC(F)(F)c1nnnn1-c1cccc2ccccc12 | 108
98 | O=C(OCC1CC1)c1ncn2c1[C@@H]1CCN1C(=O)c1c(I)cccc1-2 | 190 to 191
99 | COc1nc(Cl)cnc1NS(=O)(=O)c1cccnc1-c1ccc(CC(C)C)cc1 | 156 to 157
100 | CCCCn1nc2c(N)nc3ccccc3c2c1CC(C)(C)C | 163 to 164
101 | COCn1c(C)nc2nc(O)cnc2c1=O | 224 to 226
